Data from patent US6416783B1, “Aspartic and malic acid inhibition of ss-glucuronidase” (Wisconsin Alumni Research Foundation, priority 1999, dated 2002).
“And” between values parts separate entries of the source, which are not always exact repeats. Equal entries are not always repeated. Where two headings read alike, the source gives them in different places. Blank lines part the entries; values can stand above or below the compound they belong to.

Key:
[1] = cited from earlier work
[2] = molecular target: T1, β-glucuronidase (Homo sapiens, UniProt P08236); experiment: Standard Test: β-glucuronidase activity of human breast milk with MUG substrate (fluorescence); type: biochemical; details: Example 3; for mean (X̄) activity: mean of 3; for Activity (pmole/tube/hr): single replicates
T1 construct: We used human breast milk collected and pooled from a newborn nursery as the β-glucuronidase source; from tissue
T1 sequence (P08236 23-651): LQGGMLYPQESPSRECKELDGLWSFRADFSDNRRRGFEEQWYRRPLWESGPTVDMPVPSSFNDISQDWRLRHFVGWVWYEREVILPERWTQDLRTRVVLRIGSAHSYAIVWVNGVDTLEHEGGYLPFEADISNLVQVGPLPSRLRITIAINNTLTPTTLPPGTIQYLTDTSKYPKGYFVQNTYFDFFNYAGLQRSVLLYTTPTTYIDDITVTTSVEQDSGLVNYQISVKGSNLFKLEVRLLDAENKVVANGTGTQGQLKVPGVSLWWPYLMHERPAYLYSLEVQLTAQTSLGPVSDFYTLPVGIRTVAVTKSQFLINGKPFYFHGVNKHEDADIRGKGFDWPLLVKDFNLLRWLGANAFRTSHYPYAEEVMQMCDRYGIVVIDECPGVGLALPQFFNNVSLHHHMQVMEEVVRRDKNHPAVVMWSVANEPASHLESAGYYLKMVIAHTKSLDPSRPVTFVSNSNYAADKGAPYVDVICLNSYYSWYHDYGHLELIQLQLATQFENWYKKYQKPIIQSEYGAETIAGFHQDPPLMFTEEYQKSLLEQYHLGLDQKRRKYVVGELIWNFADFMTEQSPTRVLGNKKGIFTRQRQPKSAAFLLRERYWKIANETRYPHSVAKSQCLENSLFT
Method: We first developed a standard assay procedure (the “Standard Test”). We used human breast milk collected and pooled from a newborn nursery as the β-glucuronidase source. The samples were stored at −20° C. The milk was thawed and diluted 10× with 0.2 M sodium acetate/glacial acetic acid (NaAC) buffer pH 4.5 just prior to being used. A 4.0 mM stock solution of 4-methylumbelliferyl β-D-glucuronide (MUG, Sigma M-9130 lot#75H3777) was prepared in 0.2 M NaAC buffer pH 4.5.
Triplicate test and blank tubes contained a reaction mixture consisting of 50 μL diluted breast milk and 50 μL of an inhibitor solution diluted with 0.2 M NaAC buffer pH 4.5. Controls were prepared that contained only 50 μL diluted breast milk and 50 μL 0.2 M NaAC buffer pH 4.5. The assay was started by adding 25 μl of the MUG (4.0 mM, 0.800 mM final concentration) to the test sample to start the reaction. The final volume of the reaction was 125 μL. Both blank and test samples were vortexed and incubated at 37° C. for 1 hour (or for shorter times if indicated).
The reaction was quenched in both the test and blank samples with 3.0 ml of glycine-carbonate (320 mM: 200 mM) buffer pH 10.0. The blank samples had 25 μl of the MUG (4.0 mM, 0.800 mM final) added to them and all tubes were vortexed.
The resulting fluorescence was read using a Perkin Elmer LS5-B fluorescence spectrophotometer (360 nm excitation, 445 nm emission, autorange scale). The amount of 4-methylumbelliferone (4-MU) released by the β-glucuronidase was calculated using a 4-MU quadratic standard curve and the Mathplot software. The velocity was calculated as pmoles of 4-MU formed per hour per ml undiluted breast milk.
We diluted pooled breast milk 20× with 0.2 M NaAC buffer pH 4.5. We diluted 2.2% w/v solution of Amicase (Sigma Cat. #A2427—a mixture of free amino acids with virtually no unhydrolyzed peptides, only minimal inorganic components are present, total nitrogen ˜12.8%, amino nitrogen ˜9.8%) with buffer 5×. We then incubated 50 μl milk with 50 μl buffer and Amicase. We then added 25 μl MUG to start the reaction. We then quenched with Na-carbonate buffer pH 10.0 and read fluorescence at 360 nm ex 445 nm em. Autorange scale. The mixture of amino acids was compared to controls and Nutramigen® as follows:
We then studied the effect of specific amino acid mixtures on β-glucuronidase activity. We diluted pooled breast milk 10× with 0.2 M NaAC buffer pH 4.5 and diluted 50×stock essential amino acid solution (Sigma Cat #M7020=L-arginine.HCl 6.32 g/L, L-cystine 1.2 g/L, L-histidine.HCl.H20 2.1 g/L, L-isoleucine 2.625 g/L, L-leucine 2.62 g/L, L-lyscine.HCl 3.625 g/L, L-methionine 0.755 g/L, L-phenylalanine 1.65 g/L, L-threonine 2.38 g/L, L-tryptophane 0.51 g/L, L-tyrosine 1.8 g/L, L-valine 2.34 g/L).
We also used a non-essential AA solution=Sigma Cat #M7145=L-alanine HCl 0.89 g/L, L-asparagine.H20 1.50 g/L, L-aspartic acid 1.33 g/L, L-glutamic acid 1.47 g/L, glycine 0.75 g/L, L-proline 1.15 g/L, L-serine 1.05 g/L.
We 5×diluted 100×stock essential AA solution. We incubated 50 μl diluted milk with 50 μl buffer (control), or the essential AA solution, or the non-essential AA solution, or Nutramigen® RTU, added 25 μl MUG to start the reaction, quenched with Na-carbonate buffer, and read fluorescence (360 nm excitation: 445 nm emission). The results are as follows:
We then analyzed inhibitory effect of each of the seven amino acids in the non-essential amino acid mixture. We diluted pooled breast milk 10× with 0.2 M NaAC buffer pH 4.5, and diluted Nutramigen® RTU (N) and Nutramigen® lipid-free supernatant (LFS) 5 fold with 0.2 M NaAC buffer pH 4.5.
We prepared stock solutions of each of the non-essential amino acids L-alanine (Ala), L-asparagine (Asn), L-aspartic acid (Asp), L-glutamic acid (Glu), glycine (Gly), L-proline (Pro), and L-Serine (Ser). All solutions were at pH 4.5. The final concentration of each amino acid in the assay was the same as when the amino acids were analyzed as a mixture. […]

Compound: N[C@@H](CC(=O)O)C(=O)O [aspartic acid]
- serum bilirubin level ([1]; a premature infant with neonatal hyperbilirubinemia, Kohno et al. 1963): lowered
- effect on serum bilirubin concentrations ([1]; double-blind, pre-term formula-fed infants, given each of the first six days of life, Gray et al. 1971): no effect
- serum bilirubin level ([1]; some cases of hyperbilirubinemia, Saito et al. 1964): decreased

- remaining activity at 46 µg/mL ([2]; 46.0 μg/ml, read-out: % (activity relative to control)): 99.3%
- mean (X̄) activity ([2]; 46.0 μg/ml): 669.6 pmole/tube/hr
Compound: O=C(O)[C@@H]1CCCN1 [Pro, L-proline]
- Activity (pmole/tube/hr) ([2]; 46.0 μg/ml): 666.1 pmole/tube/hr and 679.7 pmole/tube/hr and 662.9 pmole/tube/hr

- remaining activity at 30 µg/mL ([2]; 30.0 μg/ml, read-out: % (activity relative to control)): 102%
- mean (X̄) activity ([2]; 30.0 μg/ml): 685.5 pmole/tube/hr
Compound: NCC(=O)O [Gly, glycine]
- Activity (pmole/tube/hr) ([2]; 30.0 μg/ml): 674.7 pmole/tube/hr and 695.4 pmole/tube/hr and 686.5 pmole/tube/hr
